Columns and labels:
[1] = Body weight and histological analysis (H&E) of major organs, MDA-MB-231 tumor-bearing mice; format: in vivo; conditions: ZC-22 monotherapy 50 mg/kg ip
Experimental: To detect the safety of ZC-22 monotherapy or combination therapy, sections of mouse heart, liver, spleen, lung, and kidney tissues were stained with hematoxylin and eosin (H&E) and then analyzed by microscopy.
Figure S3. ZC-22 inhibits signaling of CDK4/6 and PARP in xenograft tumors of breast cancer. Female NOD-SCID mice were injected subcutaneously with 2×10^6 of MDA-MB-231 cells and treated ip daily with 50 mg/kg of Olaparib (OLA) or LY2835219 (LY-2) alone or together (OLA+LY-2), or ZC-22 starting on day 10 after injection of cells when tumors were 50–80 mm3 in size. Representative pictures of (A) and quantification of percentage of (B) phosphorylated Rb (p-Rb)-positive cells in immunohistochemical staining of the MDA-MB-231 xenograft tumor tissues. Values are means ± SEM, n = 6. ns, not significant, and *** p < 0.001 in the unpaired t-test. (C) Western blot analysis of p-Rb (Left) and PAR (Right) in the MDA-MB-231 xenograft tumor tissues with indicated treatment.
(D) Body weights of MDA-MB-231 tumor burden mice with indicated treatment. Values are means ± SD, n = 6. ns, not significant in unpaired t-test. (E) H&E staining of the heart, liver, spleen, lung, and kidney tissues of tumor-bearing mice treated with DMSO or ZC-22, showing the lack of toxicity of ZC-22 treatment.
Figure S4. ZC-22 increases the sensitivity of breast and ovarian cancer cells to cisplatin. […]

[2] = system: breast and ovarian cancer cells; assay: CCK-8 cell proliferation/viability at fixed concentration; format: cell-based, human; conditions: 48 or 72 h
Experimental: Cell viability assay was performed as described before. Briefly, 2500/well of breast or ovarian cancer cells were seeded into a 96-well plate; grown overnight; treated with indicated concentration of Olaparib, LY2835219, ZC22, LP-1, GC-24, or cisplatin alone or together for an indicated amount of time; and then incubated with Cell Counting kit-8 (CCK-8) substrate (Dojindo, Kumamoto, Kyushu Island, Japan) for 1–2 h at 37 °C. Cell viability was calculated by the absorbance at 450 nm measured by the GloMax Explorer (Promega, Madison, WI, USA). Cells without treatment were set as 100%, and medium control (no cells) was set as 0%.
Figure 2 ZC-22 suppresses proliferation of breast and ovarian cancer cells. (A) IC50 of ZC-22, Olaparib, and LY2835219 (Abemaciclib) in breast and ovarian cancer cells. […] Cell proliferation was analyzed by CCK-8 assays. […] Cell proliferation assay was analyzed by CCK-8 assays. […]
Figure 5 ZC-22 increases the sensitivity of breast and ovarian cancer cells to cisplatin. […] Representative pictures of EdU staining are shown in the left panels, and quantification of percentage of EdU-positive cells was presented in the bar graphs on the right, n = 3. […] (D) Representative pictures (left) and quantification of percentage (right) of γH2A.X-positive cells in MDA-MB-231 (top panels) and OVCAR5 (bottom panels) cells treated with DDP alone or together with OLA or ZC-22 for 24 h, n = 3. […]

Q: What does the source list for `Cc1nc2c(F)cc(-c3nc(Nc4ccc(N5CCN(C(=O)c6cc(Cc7n[nH]c(=O)c8ccccc78)ccc6F)CC5)cn4)ncc3F)cc2n1C(C)C` [ZC-22, 4-(4-fluoro-3-(4-(6-((5-fluoro-4-(4-fluoro-1-isopropyl-2-methyl-1H-benzo[d]imidazole-6-yl)pyrimidin-2-yl)amino)pyridin-3-yl)piperazine-1-carbonyl)benzyl)phthalazin-1(2H)-one]?
A: toxicity (body weight, histology of major organs) [1]: no obvious toxicity; growth inhibition compared with Olaparib and Abemaciclib alone and combined ([2]; MDA-MB-231 2 μM, SUM-159, OVCAR5, SKOV3 0.5 μM): better anti-tumor efficacy than the Olaparib and Abemaciclib monotherapy, and the combination therapy; sensitization of cells to cisplatin (cell viability) ([2]; cisplatin 2.5 μM (SKOV3 5 μM) together with 2 μM or 0.5 μM compound): greatly sensitized breast and ovarian cancer cells to cisplatin

Source: publication PMC8911181, “A Novel CDK4/6 and PARP Dual Inhibitor ZC-22 Effectively Suppresses Tumor Growth and Improves the Response to Cisplatin Treatment in Breast and Ovarian Cancer” (International Journal of Molecular Sciences, 2022)
